Assay results published in patent US11730826B2, “Amphiphilic nanoparticles for delivery of CRISPR based therapy” (Massachusetts Institute of Technology, priority 2016, dated 2023).

What was measured:
[1] = system: s-SMAD4; experiment: Reactions of sgRNA with anticancer agents by MALDI/TOF MS; conditions: for time at which RNA adducts were formed: excess agent; for adducts in the RNA macromolecule: 24 h of incubation
Experimental: Determination of the reactions of sgRNA with anticancer agents by MALDI/TOF MS: A 20-mer of RNA comprising the seed region of SMAD4 sgRNA (s-SMAD4) was mixed with Pt(II), Pt(IV)-COOH, doxorubicin, gemcitabine, camptothecin or melphalan at a molar ratio of 1:10 in RNase free water (RNA final concentration (10 μM); small molecule (100 μM)). The reaction mixture was shaken in a 37° C. incubator for a prescribed time interval (30 min, 1 h, 3 h, 6 h, 9 h, 12 h, or 24 h); and, 10 μL of each solution was analyzed by MALDI/TOF MS (positive mode), employing hydroxipicolinic acid as the matrix.

[2] = system: s-SMAD4; experiment: Kinetics of Pt-RNA adduct formation by AAS
[3] = system: Cytoplasmic RNA; conditions: upon intracellular uptake; cited from earlier work
[4] = system: BCL-2 siRNA; experiment: siRNA binding with platinum species by MALDI-TOF-MS; conditions: 10-fold excess of platinum species
Experimental: A single-stranded siRNA (UCAGGUACUCAGUCAUCCACATT) was mixed with OxaPt(II) at a molar ratio of 1:10 in RNAase free water (RNA final concentration: 50 μM; Pt final concentration: 500 μM; total volume: 100 μL). The reaction mixture was placed in a 37° C. incubator and 10 μL of sample were removed at various time points to obtain MALDI-TOF-MS spectra (positive model). Analogous methods were employed to obtain spectra of the reaction products of siRNA with OxaPt(IV), CisPt(II) and CisPt(IV).

[5] = system: s-SMAD4; experiment: PicoGreen based melting temperature assay of s-SMAD4/ss-DNA heterodimer
Experimental: The Tm of the unreacted 20-mer and the ss-DNA (41° C.) resembled the calculated Tm of the heterodimer of the native SMAD4 sgRNA with DNA (43° C.).

[6] = system: SMAD4 sgRNA; experiment: Activity of sgRNA after incubation with small molecule anticancer agents (WB in Cas9-expressing SKOV3 cells); type: cell-based, human; conditions: for suppression of SMAD4 protein by sgRNA after coincubation: 12 h of coincubation, effective = levels <30% of baseline; for effect of co-incubation on SMAD4 sgRNA suppression: up to 24 h prior to transfection
Experimental: Activity of sgRNA after incubation with various small molecule anticancer agents: To determine the effects of platination or alkylation of sgRNA on silencing efficiency, SMAD4 sgRNA was first pre-incubated with various small molecules including Pt(II), Pt(IV)-COOH, doxorubicin, gemcitabine, camptothecin, or melphalan for either 12 h or 24 h, at 37° C., and at a drug to sgRNA molar ratio of 10:1 in RNase free water. The sgRNA was then purified by […] (Mw=3 kDa) and quantified by Nanodrop. The RNAi-MAX (Invitrogen, Thermo-fisher, USA) was utilized to transfect the reacted sgRNA (10 nM) into Cas9-expressing SKOV3 cells in 6-well plates. After 72 h, protein was recovered from cell lysates and analyzed by WB to quantify SMAD4 and GAPDH (product of a house-keeping gene; control) levels with respect to those of untreated cells. In addition, to compare the effects of Pt(II) and Pt(IV)-COOH interference with sgRNA-mediated recognition and target gene silencing by Cas9, various incubation periods were examined (i.e. 3, 6, and 9 h).

[7] = system: 5′-GMP; experiment: 5′-GMP binding with platinum species by 1HNMR
Experimental: The binding kinetics of 5′-GMP to each platinum species were determined by measuring the relative amounts of free and Pt-bound 5′-GMP at each time point, integrating the ratio of the ^1HNMR peaks at 8.5 ppm to 8.09 ppm.

[8] = system: BCL-2 siRNA; experiment: Silencing activity of BCL-2 siRNA preincubated with platinum species (qRT-PCR); type: cell-based; conditions: MCF-7 cells, RT-qPCR 48 h after transfection, pre-incubation 1 vs. 12 h
Experimental: 48 hours after transfection, total RNA was isolated using an RNeasy mini-kit (Qiagen, Germantown, Md.) and quantified by NanoDrop. 300 ng of mRNA were subsequently subjected to qRT-PCR analysis, targeting BCL-2 and glyceraldehyde 3-phosphate dehydrogenase (GAPDH) by using the SYBR Premix Ex (Takara, USA) and by using an Applied Biosystems StepOne Real-Time PCR System. Relative gene expression values were determined by the […] using StepOne Software v2.1 (Applied Biosystems). Data are presented as fold differences in […] normalized to GAPDH (house-keeping gene used as endogenous reference), employing a standard curve, and are reported relative to untreated (control) cells. The sequence of the primers used for BCL-2 and GAPDH are as follows: BCL-2 forward—5-[…]-3; Bcl-2 reverse—5-[…]-3; GAPDH forward—5-[…]-3; and GAPDH reverse primer—5-[…]-3 (Integrated DNA Technology. IW, USA). The specificity of each set of primers was verified by melting curve analysis.

| Structure (SMILES) | earliest time Pt-siRNA adducts detected [4] | incubation time beyond which sgRNA was unable to prevent protein expression [6] [h] | suppression of SMAD4 protein by sgRNA after coincubation [6] | adducts in the RNA macromolecule [1] | effect of co-incubation on SMAD4 sgRNA suppression [6] | also measured |
| --- | --- | --- | --- | --- | --- | --- |
| N.N.[Cl][Pt][Cl] [CisPt(II), cisplatin] | ≤ 30 m | > 3 | unable to effectively suppress expression of SMAD4 protein |  |  | time at which RNA adducts were formed ([1]; aqueous solution, 37° C.): 30 min; Pt atoms bound per RNA macromolecule [2]: up to 6; RNA platinated ([2]; incubated for 1 h with >10 μM): > 50%; apparent second-order rate constant ([2]; pseudo-first order kinetics): > 10 µM⁻¹ s⁻¹; concentrations of Pt-RNA adducts relative to Pt-DNA adducts [3]: 5-6 times; heterodimerization of pretreated s-SMAD4 with ss-DNA [5]: could not heterodimerize with ss-DNA at any temperature; formation of Pt(NH3)2(5′-GMP)2 adducts ([7]; data not shown): rapid formation and time dependent increases |
| O=C1[O][Pt]2([NH][C@@H]3CCCC[C@H]3[NH]2)[O]C1=O [OxaPt(II), Oxaliplatin] | 1 h |  |  |  |  | effect of incubation with siRNA on silencing efficiency [8]: concentration and time-dependent decrease in silencing efficiency; DACHPt(5′-GMP)2 adducts as share of the total 5′-GMP pool ([7]; over the first 6 h, 10 mM 5′-GMP, 5 mM Pt, 37° C.): > 40% |
| CC[C@@]1(O)C(=O)OCc2c1cc1n(c2=O)Cc2cc3ccccc3nc2-1 [camptothecin] |  |  |  | no adducts were detected | did not alter the ability of SMAD4 sgRNA to effectively suppress expression levels |  |
| COc1cccc2c1C(=O)c1c(O)c3c(c(O)c1C2=O)C[C@@](O)(C(=O)CO)C[C@@H]3O[C@H]1C[C@H](N)[C@H](O)[C@H](C)O1 [doxorubicin] |  |  |  | physical association multimers in non-covalent complexes with RNA | did not alter the ability of SMAD4 sgRNA to effectively suppress expression levels |  |
| Nc1ccn([C@@H]2O[C@H](CO)[C@@H](O)C2(F)F)c(=O)n1 [gemcitabine] |  |  |  | no adducts were detected | did not alter the ability of SMAD4 sgRNA to effectively suppress expression levels |  |
| N[C@@H](Cc1ccc(N(CCCl)CCCl)cc1)C(=O)O [melphalan] |  | > 6 | unable to effectively suppress expression of SMAD4 protein |  |  | time at which RNA adducts were formed [1]: 60 min |
